Test results from patent publication US12622866B2, “Topical compositions and methods” (MARY KAY INC., priority 2018, dated 2026).

Tests used:
B16-F1 melanocytes = test: B16 pigmentation assay (melanogenesis); type: cell-based, mouse; conditions: ingredient 1%, 6 days, melanin secretion by absorbance at 405 nm
Description: Melanogenesis is the process by which melanocytes produce melanin, a naturally produced pigment that imparts color to skin, hair, and eyes. Inhibiting melanogenesis is beneficial to prevent skin darkening and lighten dark spots associated with aging. This bioassay utilizes B16-F1 melanocytes (ATCC), an immortalized mouse melanoma cell line, to analyze the effect of compounds on melanogenesis. The endpoint of this assay is a spectrophotometric measurement of melanin production and cellular viability. B16-F1 melanocytes, were cultivated in standard DMEM growth medium with 10% fetal bovine serum (Mediatech) at 37° C. in 10% CO2 and then treated with the ingredients in the amounts indicated in Table 2 for 6 days. Following incubation, melanin secretion was measured by absorbance at 405 nm and cellular viability is quantified.

[1] = system: TNF-α production by human epidermal keratinocytes; test: Tumor necrosis factor alpha (TNF-α) assay; type: cell-based; conditions: ingredient 1%, PMA 10 ng/ml, 6 hours, ELISA
Description: The prototype ligand of the TNF superfamily, TNF-α, is a pleiotropic cytokine that plays a central role in inflammation. Increase in its expression is associated with an up regulation in pro-inflammatory activity. This bioassay was used to analyze the effect of the ingredients in the amounts listed in Table 9 on the production of TNF-α by human epidermal keratinocytes. The endpoint of this assay was a spectrophotometric measurement that reflects the presence of TNF-α and cellular viability. The assay employs the quantitative sandwich enzyme immunoassay technique whereby a monoclonal antibody specific for TNF-α has been pre-coated onto a microplate. Standards and samples were pipetted into the wells and any TNF-α present is bound by the immobilized antibody. After washing away any unbound substances, an enzyme-linked polyclonal antibody specific for TNF-α is added to the wells. Following a wash to remove any unbound antibody-enzyme reagent, a substrate solution is added to the wells and color develops in proportion to the amount of TNF-α bound in the initial step using a microplate reader for detection at 450 nm. The color development was stopped and the intensity of the color was measured. […] Following incubation, cell culture medium was collected and the amount of TNF-a secretion quantified using a sandwich enzyme linked immuno-sorbant assay (ELISA) from R&D Systems (#DTA00C).

[2] = system: Type I procollagen peptide secretion by human adult epidermal fibroblasts; test: Collagen stimulation assay; type: cell-based; conditions: ingredient 1%, 3 days, ELISA
Description: Collagen is an extracellular matrix protein critical for skin structure. Increased synthesis of collagen helps improve skin firmness and elasticity. This bioassay was used to examine effects on the production of procollagen peptide (a precursor to collagen) by human epidermal fibroblasts. The endpoint of this assay was a spectrophotometric measurement that reflects the presence of procollagen peptide and cellular viability. The assay employed the quantitative sandwich enzyme immunoassay technique whereby a monoclonal antibody specific for procollagen peptide was pre-coated onto a microplate. Standards and samples were pipetted into the wells and any procollagen peptide present was bound by the immobilized antibody. […] Color development was stopped and the intensity of the color at 450 nm was measured using a microplate reader.
For generation of samples and controls, subconfluent normal human adult epidermal fibroblasts (Cascade Biologics) were cultivated in standard DMEM growth medium with 10% fetal bovine serum (Mediatech) at 37° C. in 10% CO2. […] Following incubation, cell culture medium was collected and the amount of Type I procollagen peptide secretion was quantified using the sandwich enzyme linked immuno-sorbant assay (ELISA) from Takara (#MK101) as explained above. […]

[3] = system: lysyl oxidase expression in skin cells; test: Lysyl oxidase assay; type: cell-based; conditions: ingredient 1%
Method: A lysyl oxidase assay was performed on skin cells (e.g., epidermal keratinocytes, fibroblasts, and/or dermal endothelial cells) to determine the ability of the ingredient listed in Table 8 to stimulate expression of lysyl oxidase in skin. Lysyl oxidase can catalyze crosslinking of elastin and collagens, thereby providing for a more structurally rigid matrix for skin. By increasing expression of lysyl oxidase, increased cross-linking of elastin and collagens can occur, which can be beneficial in reducing the appearance of fine lines, wrinkles, sagging skin, and/or non-elastic skin.

[4] = Antioxidant (AO) assay, total anti-oxidant capacity; type: biochemical; conditions: ingredient 1%, Cayman Anti-Oxidant capacity kit #709001
Description: The assay relies on the ability of antioxidants in the sample to inhibit the oxidation of ABTS® (2,2′-azino-di-[3-ethylbenzthiazoline sulphonate]) to ABTS®·+by metmyoglobin. The antioxidant system of living organisms includes enzymes such as superoxide dismutase, catalase, and glutathione peroxidase; macromolecules such as albumin, ceruloplasmin, and ferritin; and an array of small molecules, including ascorbic acid, α-tocopherol, β-carotene, reduced glutathione, uric acid, and bilirubin. The sum of endogenous and food-derived antioxidants represents the total antioxidant activity of the extracellular fluid. Cooperation of all the different antioxidants provides greater protection against attack by reactive oxygen or nitrogen radicals, than any single compound alone. Thus, the overall antioxidant capacity may give more relevant biological information compared to that obtained by the measurement of individual components, as it considers the cumulative effect of all antioxidants present in plasma and body fluids. The capacity of the antioxidants in the sample to prevent ABTS oxidation was compared with that of Trolox, a water-soluble tocopherol analogue, and was quantified as molar Trolox equivalents. […]

mushroom tyrosinase = test: Mushroom tyrosinase activity assay; type: biochemical; conditions: ingredient 1%, substrate L-Dopa, read at 490 nm
Method: In mammalian cells, tyrosinase catalyzes two steps in the multi-step biosynthesis of melanin pigments from tyrosine (and from the polymerization of dopachrome). Tyrosinase is localized in melanocytes and produces melanin (aromatic quinone compounds) that imparts color to skin, hair, and eyes. Purified mushroom tyrosinase (Sigma) was incubated with its substrate L-Dopa (Fisher) in the presence of each of the ingredients in the amounts indicated in Table 3. Pigment formation was evaluated by colorimetric plate reading at 490 nm. The percent inhibition of mushroom tyrosinase activity was calculated compared to non-treated controls to determine the ability of tested ingredients to inhibit the activity of purified enzyme.

Compound	% of Inhibition (B16 melanogenesis) (B16-F1 melanocytes) [%]	% of expression (TNF-α Expression) [1] [%]	% of expression (Collagen 1 Expression) [2] [%]	% of expression (Lysyl Oxidase) [3] [%]	% of Inhibition (Anti-oxidant capacity) [4] [%]	% of Inhibition (Mushroom Tyrosinase Inhibition) (mushroom tyrosinase) [%]
NC(=O)c1cccnc1 [Niacinamide]	30	–	–	–	–	–
Sodium ascorbyl phosphate [Stay C 50]	–	85	36	500	97	26
